Measured values from US12551562B2, “Methods and compositions for irreversible enzyme inhibition” (TRITERPENOID THERAPEUTICS, INC., priority 2019, dated 2026).

What was measured:
[1] = biological target: T1, recombinant Keap1 (Homo sapiens, UniProt Q14145); assay: Modification of Keap1 by triterpenoids, LC-MS/MS of tryptic digests; type: binding; conditions: 100 μM, 16 h
T1 construct: made in house
Protocol: Triterpenoids were dissolved in DMSO to make up 1 mM stock solutions, followed by dilutions in phosphate buffer (10 mM, pH 7.4) and incubated with recombinant Keap1 proteins produced in house at 37° C. for 16 h. The final concentration of triterpenoids was 100 μM. The mixture was then purified by 1D-gel electrophoresis using an established protocol, followed by in gel-digestion. The digests were further purified by C18-ziptiping and analyzed by LC-MS/MS.
(§1) The tryptic peptides were analyzed by a Triple TOF 5600 mass spectrometer (Sciex). Samples were reconstituted in 50 μL 0.1% formic acid (FA) and 2 μL of samples were delivered into the instrument using an Eksigent Nano-LC system mounted with a nanoACQUITY UPLC Symmetry C18 Trap Column and an analytical BEH C18 nanoACQUITY Column (Waters, MA, USA). A NanoSpray III source was fitted with a 10 μm inner diameter PicoTip emitter (New Objective). Samples were loaded in 0.1% formic acid onto the trap, which was then washed with 2% ACN/0.1% FA for 10 min at 2 μL/min before switching in-line with the analytical column. A gradient of 2-50% (v/v) ACN/0.1% (v/v) FA over 90 min was applied to the column at a flow rate of 300 nL/min. […] Sequence coverage was determined using ProteinPilot software, v4.0 and the most recent version of the SwissProt database.

[2] = biological target: T2, LONP protein (Homo sapiens, UniProt P36776); assay: Modification of LONP by triterpenoids, LC-MS/MS of tryptic digests; type: binding; conditions: 100 μM, 16 h; lysine (3), cysteine (3), tyrosine (2)
T2 construct: Professor John Letterio (supplied; not a vendor)
T2 sequence (P36776 68-959): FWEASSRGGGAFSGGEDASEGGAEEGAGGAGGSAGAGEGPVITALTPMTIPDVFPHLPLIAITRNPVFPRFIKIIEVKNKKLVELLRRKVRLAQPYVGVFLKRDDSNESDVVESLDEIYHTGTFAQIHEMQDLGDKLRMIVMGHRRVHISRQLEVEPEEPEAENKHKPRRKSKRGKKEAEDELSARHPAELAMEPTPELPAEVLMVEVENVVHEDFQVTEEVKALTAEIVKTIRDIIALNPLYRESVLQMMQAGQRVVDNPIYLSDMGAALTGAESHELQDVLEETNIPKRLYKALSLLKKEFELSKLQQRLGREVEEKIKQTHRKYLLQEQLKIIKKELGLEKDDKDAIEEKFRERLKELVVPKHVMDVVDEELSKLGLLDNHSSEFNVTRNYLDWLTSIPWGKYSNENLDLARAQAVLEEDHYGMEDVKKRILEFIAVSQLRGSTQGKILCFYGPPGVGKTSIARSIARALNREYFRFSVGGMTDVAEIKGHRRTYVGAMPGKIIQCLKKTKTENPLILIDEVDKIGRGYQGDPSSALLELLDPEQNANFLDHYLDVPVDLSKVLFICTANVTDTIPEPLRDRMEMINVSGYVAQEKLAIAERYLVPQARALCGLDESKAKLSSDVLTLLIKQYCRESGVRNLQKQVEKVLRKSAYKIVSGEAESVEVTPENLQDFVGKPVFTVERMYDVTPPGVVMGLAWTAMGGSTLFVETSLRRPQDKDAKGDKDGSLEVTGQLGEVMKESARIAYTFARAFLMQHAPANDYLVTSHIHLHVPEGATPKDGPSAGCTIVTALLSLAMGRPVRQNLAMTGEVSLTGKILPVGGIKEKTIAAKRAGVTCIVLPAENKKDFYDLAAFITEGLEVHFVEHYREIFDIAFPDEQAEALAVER
Protocol: The LONP protein (Professor John Letterio) was first purified by buffer exchange using spin filters (3K MWCO). 10 μg protein was then incubated with CDDO-2P-Im (100 μM) in phosphate buffer (10 mM, pH 7.4) at 37° C. for 16 h. The mixture was then purified by 1D-gel electrophoresis using an established protocol, followed by in gel-digestion. The digests were further purified by C18-ziptiping and analyzed by LC-MS/MS.
as §1

[3] = system: Epstein-Barr virus-transformed B-cell lines; assay: Modification of B cell intracellular proteins by triterpenoids, proteomics LC-MS/MS; type: cell-based, human
Protocol: Epstein-Barr virus-transformed B-cell lines were generated with previously described methods by incubating PBMC with supernatant from the Epstein-Barr virus-producing cell line B9-58. B cells were maintained in F1 medium at 37° C., 5% CO2. Cells were plated into an 8-well plate at a concentration of 1×10^6 cells/ml and treated with triterpenoids at different concentrations (0, 1, 10 μM) for 16 hours. 200 μL cells were then plated (1×10^5 cells/well) into a 96-well plate, [^3H]-thymidine (0.5 μCi/well) was then added and incubated for 16 hours. Cell was harvested and the proliferative responses were measured by [^3H]-thymidine incorporation. For the remaining cells, supernatants were removed for ELISA (TNFα, IL10, and IFNγ) and proteomics analysis. The cells were then washed in PBS and lysed with 2D lysis buffer (40 mM Tris base, 7M urea, 2M thiourea, 4% (w/v) CHAPS, and 1% DTT). Cell lysates were sonicated and centrifuged at 18000 rpm for 20 minutes at […]. Supernatants were collected and the protein concentrations were measured by BCA assay. Proteins were denatured and processed for mass spectrometric analysis.
(§2) The tryptic peptides were analyzed by a Triple TOF 5600 mass spectrometer (Sciex). […] Sequence coverage was determined using ProteinPilot software, v4.0 and the most recent version of the SwissProt database.

[4] = biological target: T3, His-GSTP (Homo sapiens, UniProt P09211); assay: Modification of His-GSTP by triterpenoids, LC-MS/MS of tryptic digests; type: binding
T3 construct: made in house; host or cells: E. coli
T3 sequence (P09211 whole entry): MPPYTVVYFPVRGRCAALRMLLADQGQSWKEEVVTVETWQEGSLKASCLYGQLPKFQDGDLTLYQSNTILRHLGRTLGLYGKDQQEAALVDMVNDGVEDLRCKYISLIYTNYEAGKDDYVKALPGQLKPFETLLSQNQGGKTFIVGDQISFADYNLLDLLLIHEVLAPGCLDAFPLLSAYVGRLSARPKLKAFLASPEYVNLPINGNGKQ
Protocol: His-GSTP was expressed in E. coli as described previously. Purified His-GSTP captured on nickel beads was incubated with a range of concentrations of CDDO-Im (50 nM-10 μM) in phosphate buffer, pH 7.4 for 16 h. CDDO-Me (0.5 mM) was used as a positive control. The beads were then washed 5 times with 1000 μL phosphate buffer. The protein was subjected to on-bead tryptic digestion. In brief, a suspension beads in 30 μL of 50 mM ammonium bicarbonate buffer was incubated with 20 ng of trypsin for 16 h at 37° C. and the digest was analyzed by LC-MS/MS.
The tryptic peptides were analyzed by a Triple TOF 5600 mass spectrometer (Sciex). Samples were reconstituted in 50 μL 0.1% formic acid (FA) and 2 μL of samples were delivered into the instrument using an Eksigent Nano-LC system mounted with a nanoACQUITY UPLC Symmetry C18 Trap Column and an analytical BEH C18 nanoACQUITY Column (Waters, MA, USA). A NanoSpray III source was fitted with a 10 μm inner diameter PicoTip emitter (New Objective). Samples were loaded in 0.1% formic acid onto the trap, which was then washed with 2% ACN/0.1% FA for 10 min at 2 μL/min before switching in-line with the analytical column. A gradient of 2-50% (v/v) ACN/0.1% (v/v) FA over 90 min was applied to the column at a flow rate of 300 nL/min. Spectra were acquired automatically in positive ion mode using information-dependent acquisition, using mass ranges of 400-1600 amu in MS and 100-1400 amu in MS/MS. Up to 25 MS/MS spectra were acquired per cycle (approximately 10 Hz) using a threshold of 100 counts per s, with dynamic exclusion for 12 s and rolling collision energy. Sequence coverage was determined using ProteinPilot software, v4.0 and the most recent version of the SwissProt database.

[5] = biological target: T4, HSA (Homo sapiens, UniProt P02768); assay: Modification of HSA by triterpenoids, LC-MS/MS of tryptic digests; type: binding
T4 construct: contains 585 amino acids (corresponding to 25-609 of P02768); purchased Sigma-Aldrich
T4 sequence (P02768 25-609): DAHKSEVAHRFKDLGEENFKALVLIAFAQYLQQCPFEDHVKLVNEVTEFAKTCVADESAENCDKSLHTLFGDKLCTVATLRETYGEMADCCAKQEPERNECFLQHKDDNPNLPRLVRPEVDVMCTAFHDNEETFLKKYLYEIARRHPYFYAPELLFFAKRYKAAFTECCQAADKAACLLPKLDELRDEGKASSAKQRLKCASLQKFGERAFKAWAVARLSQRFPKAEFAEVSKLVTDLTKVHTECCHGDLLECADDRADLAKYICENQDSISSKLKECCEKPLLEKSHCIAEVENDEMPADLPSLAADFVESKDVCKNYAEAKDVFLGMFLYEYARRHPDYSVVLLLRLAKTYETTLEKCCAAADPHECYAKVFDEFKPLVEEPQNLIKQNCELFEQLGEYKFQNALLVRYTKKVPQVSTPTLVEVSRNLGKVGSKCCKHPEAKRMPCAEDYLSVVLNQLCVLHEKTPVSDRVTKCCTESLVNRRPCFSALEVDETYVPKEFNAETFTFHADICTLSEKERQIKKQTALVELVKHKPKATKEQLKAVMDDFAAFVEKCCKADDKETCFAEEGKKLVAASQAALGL
Protocol: Triterpenoids were dissolved in DMSO to make up 1 mM stock solutions, followed by dilutions in phosphate buffer (10 mM, pH 7.4) and incubated with recombinant HSA (0.6 mM, 50 μL) in sealed Eppendorf tubes at 37° C. for 16 h. The molar ratios of drug to protein were 0.00001:1, 0.0001:1, 0.001:1, 0.01:1, 0.1:1, and 1:1. Protein was precipitated twice with 9 volumes of ice-cold methanol to remove free drug, resuspended in 50 μL phosphate buffer and then reduced with 10 mM dithiothreitol (15 min) and alkylated with 55 mM iodoacetamide (15 min) at room temperature. The protein was precipitated with methanol once more and finally dissolved in 100 μL 50 mM ammonium hydrogencarbonate, and 165 μg […] of protein was digested with 1.6 μg trypsin overnight at 37° C.
To examine the time-dependent modification of HSA by triterpenoids, 10 μM triterpenoids was incubated with HSA (0.6 mM, 300 μL) at 37° C. Aliquots of 50 μL were removed after 10, 30, 60, and 180 minutes and processed for LC-MS/MS analysis.
as §2

T1 sequence (Q14145 whole entry): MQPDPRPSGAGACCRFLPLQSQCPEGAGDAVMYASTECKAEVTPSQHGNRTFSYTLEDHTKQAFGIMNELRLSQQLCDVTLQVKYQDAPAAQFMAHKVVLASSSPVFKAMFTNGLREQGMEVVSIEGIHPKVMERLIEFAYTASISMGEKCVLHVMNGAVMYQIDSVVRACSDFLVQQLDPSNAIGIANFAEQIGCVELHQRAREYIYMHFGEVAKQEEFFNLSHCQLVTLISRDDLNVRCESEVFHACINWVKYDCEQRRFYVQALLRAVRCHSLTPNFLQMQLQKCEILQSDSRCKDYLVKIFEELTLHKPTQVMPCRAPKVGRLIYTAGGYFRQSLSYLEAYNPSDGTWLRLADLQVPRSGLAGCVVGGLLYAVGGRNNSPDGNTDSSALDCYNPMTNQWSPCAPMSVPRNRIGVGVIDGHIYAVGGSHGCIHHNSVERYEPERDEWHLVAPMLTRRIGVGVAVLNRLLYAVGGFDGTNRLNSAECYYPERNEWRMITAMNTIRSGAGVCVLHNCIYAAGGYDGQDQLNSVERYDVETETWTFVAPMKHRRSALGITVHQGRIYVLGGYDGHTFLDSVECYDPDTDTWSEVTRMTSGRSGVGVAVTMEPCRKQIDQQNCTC

Compound | modification of Cys151 of Keap1 [1] | number of binding sites identified on Keap1 ([1]; phosphate buffer pH 7.4) | number of modified LONP peptides [2] | number of modified B cell proteins identified ([3]; 10 μM for 16 hours) | modification of the 4 active cysteine residues of PPIA ([3]; B cells treated with 10 μM for 16 hours) | covalent binding to GSTP, dependence on concentration ([4]; 16 hour incubation at 37° C.) | plateau of binding to GSTP ([4]; in comparison to CDDO-Im, 16 hour incubation at 37° C., FIG. 1C/1D) | preferred binding site on GSTP ([4]; increasing drug concentrations, 16 hour incubation at 37° C., FIG. 1D) | number of CDDO-modified HSA peptides ([5]; 500 μM, 16 h, lysine (9), arginine (2), serine (7), tyrosine (5)) | lowest concentration at which adducts with GSTP were detectable ([4]; phosphate buffer pH 7.4, 16 h, 50 nM-10 μM tested) [nM] | site of the simple Michael adduct (CDDO carboxylate, +491.5 amu) on GSTP ([4]; tryptic digests of treated GSTP) | modification of HSA, dependence on concentration and time ([5]; normalized ion counts of modified peptides)
CC1(C)CC[C@]2(C(=O)n3cnc(-c4ccccn4)c3)CC[C@]3(C)[C@H](C(=O)C=C4[C@@]5(C)C=C(C#N)C(=O)C(C)(C)[C@@H]5CC[C@]43C)[C@@H]2C1 [CDDO-2P-Im, 1-[2-Cyano-3,12-dioxooleana-1,9(11)-dien-28-oyl]-4(-pyridin-2-yl)-1H-imidazole] | not detected | 8 | 8 | 32 | all modified | bind to GSTP in a similar manner | binding does not plateau above 5 μM | Cys48 | 23 |  |  | 
CC1(C)CC[C@]2(C(=O)n3ccnc3)CC[C@]3(C)[C@H](C(=O)C=C4[C@@]5(C)C=C(C#N)C(=O)C(C)(C)[C@@H]5CC[C@]43C)[C@@H]2C1 [CDDO-Im, 1-(2-cyano-3,12-dioxooleana-1,9(11)-dien-28-oyl) imidazole] |  |  |  |  |  | concentration-dependent |  |  |  | 50 | only detected on Cys48 | concentration- and time-dependent
